In patent US20160237045A1, “SUBSTITUTED PHENYLALANINE DERIVATIVES” (BAYER PHARMA AKTIENGESELLSCHAFT, priority 2013, published 2016):
Structures can show the parent of a compound that is named as a salt.

How the values were obtained:
plasma = experiment: Determination of anticoagulatory activity: activated partial thromboplastin time (aPTT) in plasma; conditions: in vitro in human and animal plasma (species of Table B not stated); C.K. Prest kit; 37° C., 3 minutes incubation
Experimental: a.4) Determination of Anticoagulatory Activity
The anticoagulatory activity of the test substances is determined in vitro in human and animal plasma (for example mouse, rat, rabbit, pig and dog plasma). To this end, blood is drawn off in a mixing ratio of sodium citrate/blood of 1:9 using a 0.11 molar sodium citrate solution as receiver. Immediately after the blood has been drawn off, it is mixed thoroughly and centrifuged at about 4000 g for 15 minutes. The supernatant is pipetted off.
The activated partial thromboplastin time (aPTT) is determined in the presence of varying concentrations of test substance or the corresponding solvent using a commercial test kit (C.K. Prest from Diagnostica Stago). The test compounds are incubated with the plasma and the PTT reagent (cephalin, kaolin) at 37° C. for 3 minutes. Coagulation is then started by addition of a 25 mM aqueous calcium chloride solution, and the time when coagulation occurs is determined. The concentration of test substance which brings about a 1.5-fold extension of the aPTT is determined.

human factor XIa = target: T1, human factor XIa (Homo sapiens, UniProt P03951); experiment: Measurement of FXIa inhibition (fluorogenic peptide substrate Boc-Glu(OBzl)-Ala-Arg-AMC); type: biochemical; conditions: factor XIa from Kordia 0.45 nM; 15 min preincubation; 30 min at 22° C.; fluorescence of AMC
T1 construct: purchased Kordia
Experimental: a.1) Measurement of FXIa Inhibition
The factor XIa inhibition of the substances according to the invention is determined using a biochemical test system which utilizes the reaction of a peptidic factor XIa substrate to determine the enzymatic activity of human factor XIa. Here, factor XIa cleaves from the peptic factor XIa substrate the C-terminal aminomethylcoumarin (AMC), the fluorescence of which is measured. The determinations are carried out in microtitre plates.
Test substances are dissolved in dimethyl sulphoxide and serially diluted in dimethyl sulphoxide (3000 μM to 0.0078 μM; resulting final concentrations in the test: 50 μM to 0.00013 μM). In each case 1 μl of the diluted substance solutions is placed into the wells of white microtitre plates from Greiner (384 wells). Subsequently, the following are added successively: 20 μl of assay buffer (50 mmol/l Tris buffer pH 7.4; 100 mmol/l sodium chloride; 5 mmol/l calcium chloride; 0.1% bovine serum albumin) and 20 μl of factor XIa from Kordia (0.45 nM in assay buffer). After 15 min of incubation, the enzyme reaction is started by addition of 20 μl of the factor XIa substrate Boc-Glu(OBzl)-Ala-Arg-AMC dissolved in assay buffer (10 μM in assay buffer) from Bachem, the mixture is incubated at room temperature (22° C.) for 30 min and fluorescence is then measured (excitation: 360 nm, emission: 460 nm). The measured emissions of the test batches with test substance are compared to those of control batches without test substance (only dimethyl sulphoxide instead of test substance in dimethyl sulphoxide), and IC50 values are calculated from the concentration/activity relationships.

T1 sequence (P03951 388-625 limits assumed): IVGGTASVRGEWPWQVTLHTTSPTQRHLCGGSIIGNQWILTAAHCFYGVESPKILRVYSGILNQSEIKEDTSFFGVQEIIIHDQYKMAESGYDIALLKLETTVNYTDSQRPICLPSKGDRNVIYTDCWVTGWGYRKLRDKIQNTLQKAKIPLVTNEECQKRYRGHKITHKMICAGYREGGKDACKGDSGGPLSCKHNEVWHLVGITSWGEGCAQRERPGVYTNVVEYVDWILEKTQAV
T1 sequence (P03951 19-387 partner limits assumed): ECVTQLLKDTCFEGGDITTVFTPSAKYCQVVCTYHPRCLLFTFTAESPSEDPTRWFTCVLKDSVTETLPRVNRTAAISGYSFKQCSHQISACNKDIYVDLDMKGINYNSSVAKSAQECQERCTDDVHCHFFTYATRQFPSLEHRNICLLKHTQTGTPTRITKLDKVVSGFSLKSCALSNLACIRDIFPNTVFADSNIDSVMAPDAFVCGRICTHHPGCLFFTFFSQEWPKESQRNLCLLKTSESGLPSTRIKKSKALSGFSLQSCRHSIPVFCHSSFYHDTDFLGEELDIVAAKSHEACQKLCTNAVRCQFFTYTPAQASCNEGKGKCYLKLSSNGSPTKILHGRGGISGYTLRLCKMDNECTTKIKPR

SMILES	IC50 (human factor XIa) [nM]	aPTT (concentration of test substance which brings about a 1.5-fold extension of the aPTT) (plasma) [µmol/L]
NC[C@H]1CC[C@H](C(=O)N[C@@H](Cc2ccc(-c3ccccc3S(=O)(=O)N3CCOCC3)cc2)C(=O)Nc2ccc(-c3nn[nH]n3)cc2)CC1 [Example 1, trans-4-(Aminomethyl)-N-[(2S)-3-[2′-(morpholin-4-ylsulphonyl)biphenyl-4-yl]-1-oxo-1-{[4-(2H-tetrazol-5-yl)phenyl]amino}propan-2-yl]cyclohexanecarboxamide hydrochloride]	1.9	0.17
NC[C@H]1CC[C@H](C(=O)N[C@@H](Cc2ccc(-c3ccccc3C(=O)N3CCOCC3)cc2)C(=O)Nc2ccc(-c3nn[nH]n3)cc2)CC1 [Example 2, trans-4-(Aminomethyl)-N-[(2S)-3-[2′-(morpholin-4-ylcarbonyl)biphenyl-4-yl]-1-oxo-1-{[4-(2H-tetrazol-5-yl)phenyl]amino}propan-2-yl]cyclohexanecarboxamide hydrochloride]	2.8	0.03
NC[C@H]1CC[C@H](C(=O)N[C@@H](Cc2ccc(-c3ccccc3C(=O)N3CCNCC3)cc2)C(=O)Nc2ccc(-c3nn[nH]n3)cc2)CC1 [Example 5, trans-4-(Aminomethyl)-N-[(2S)-1-oxo-3-[2′-(piperazin-1-ylcarbonyl)biphenyl-4-yl]-1-{[4-(2H-tetrazol-5-yl)phenyl]amino}propan-2-yl]cyclohexanecarboxamide hydrochloride]	11	0.32
NC[C@H]1CC[C@H](C(=O)N[C@@H](Cc2ccc(-c3ccccc3C(=O)NC3CCNCC3)cc2)C(=O)Nc2ccc(-c3nn[nH]n3)cc2)CC1 [Example 6, 4′-[(2S)-2-({[trans-4-(Aminomethyl)cyclohexyl]carbonyl}amino)-3-oxo-3-{[4-(2H-tetrazol-5-yl)phenyl]amino}propyl]-N-(piperidin-4-yl)biphenyl-2-carboxamide hydrochloride]	39	0.57
CNC(=O)c1ccccc1-c1ccc(C[C@H](NC(=O)[C@H]2CC[C@H](CN)CC2)C(=O)Nc2ccc(-c3nn[nH]n3)cc2)cc1 [Example 7, 4′-[(2S)-2-({[trans-4-(Aminomethyl)cyclohexyl]carbonyl}amino)-3-oxo-3-{[4-(2H-tetrazol-5-yl)phenyl]amino}propyl]-N-methylbiphenyl-2-carboxamide hydrochloride]	12	0.61
NC[C@H]1CC[C@H](C(=O)N[C@@H](Cc2ccc(-c3ccccc3N)cc2)C(=O)Nc2ccc(-c3nn[nH]n3)cc2)CC1 [Example 8, trans-N-[(2S)-3-(2′-Aminobiphenyl-4-yl)-1-oxo-1-{[4-(2H-tetrazol-5-yl)phenyl]amino}propan-2-yl]-4-(aminomethyl)cyclohexanecarboxamide hydrochloride]	5.5	0.24
NCC(=O)NCC(=O)NCC(=O)Nc1ccccc1-c1ccc(C[C@H](NC(=O)[C@H]2CC[C@H](CN)CC2)C(=O)Nc2ccc(-c3nn[nH]n3)cc2)cc1 [Example 9, Glycylglycyl-N-{4′-[(2S)-2-({[trans-4-(aminomethyl)cyclohexyl]carbonyl}amino)-3-oxo-3-{[4-(2H-tetrazol-5-yl)phenyl]amino}propyl]biphenyl-2-yl}glycinamide hydrochloride]	5.3	0.12
CN(C)CC(=O)Nc1ccccc1-c1ccc(C[C@H](NC(=O)[C@H]2CC[C@H](CN)CC2)C(=O)Nc2ccc(-c3nn[nH]n3)cc2)cc1 [Example 10, trans-4-(Aminomethyl)-N-[(2S)-3-(2′-{[(dimethylamino)acetyl]amino}biphenyl-4-yl)-1-oxo-1-{[4-(2H-tetrazol-5-yl)phenyl]amino}propan-2-yl]cyclohexanecarboxamide hydrochloride]	7.2	0.23
NC[C@H]1CC[C@H](C(=O)N[C@@H](Cc2ccc(-c3ccccc3NC(=O)C3CCOCC3)cc2)C(=O)Nc2ccc(-c3nn[nH]n3)cc2)CC1 [Example 11, N-{4′-[(2S)-2-({[trans-4-(Aminomethyl)cyclohexyl]carbonyl}amino)-3-oxo-3-{[4-(2H-tetrazol-5-yl)phenyl]amino}propyl]biphenyl-2-yl}tetrahydro-2H-pyran-4-carboxamide hydrochloride]	3	0.16

More lines, in order of falling IC50 (human factor XIa), values ahead:

IC50 (human factor XIa) [nM]	SMILES	aPTT (concentration of test substance which brings about a 1.5-fold extension of the aPTT) (plasma) [µmol/L]
8.9	NC[C@H]1CC[C@H](C(=O)N[C@@H](Cc2ccc(-c3ccccc3NC(=O)C3CCNCC3)cc2)C(=O)Nc2ccc(-c3nnn[nH]3)cc2)CC1 [Example 12, N-{4′-[(2S)-2-({[trans-4-(Aminomethyl)cyclohexyl]carbonyl}amino)-3-oxo-3-{[4-(1H-tetrazol-5-yl)phenyl]amino}propyl]biphenyl-2-yl}piperidine-4-carboxamide hydrochloride]	0.29
4.2	NC[C@H]1CC[C@H](C(=O)N[C@@H](Cc2ccc(-c3ccccc3CO)cc2)C(=O)Nc2ccc(-c3nn[nH]n3)cc2)CC1 [Example 14, trans-4-(Aminomethyl)-N-[(2S)-3-[2′-(hydroxymethyl)biphenyl-4-yl]-1-oxo-1-{[4-(2H-tetrazol-5-yl)phenyl]amino}propan-2-yl]cyclohexanecarboxamide hydrochloride]	0.31
4	CC(=O)Nc1ccccc1-c1ccc(C[C@H](NC(=O)[C@H]2CC[C@H](CN)CC2)C(=O)Nc2ccc(-c3nn[nH]n3)cc2)cc1 [Example 13, trans-N-[(2S)-3-(2′-Acetamidobiphenyl-4-yl)-1-oxo-1-{[4-(2H-tetrazol-5-yl)phenyl]amino}propan-2-yl]-4-(aminomethyl)cyclohexanecarboxamide hydrochloride]	0.18
1.3	NC[C@H]1CC[C@H](C(=O)N[C@@H](Cc2ccc(-c3ccccc3C(=O)N3CCCCC3)cc2)C(=O)Nc2ccc(-c3nn[nH]n3)cc2)CC1 [Example 4, trans-4-(Aminomethyl)-N-[(2S)-1-oxo-3-[2′-(piperidin-1-ylcarbonyl)biphenyl-4-yl]-1-{[4-(2H-tetrazol-5-yl)phenyl]amino}propan-2-yl]cyclohexanecarboxamide hydrochloride]	0.07
0.7	CCN(CC)C(=O)c1ccccc1-c1ccc(C[C@H](NC(=O)[C@H]2CC[C@H](CN)CC2)C(=O)Nc2ccc(-c3nn[nH]n3)cc2)cc1 [Example 3, 4′-[(2S)-2-({[trans-4-(Aminomethyl)cyclohexyl]carbonyl}amino)-3-oxo-3-{[4-(2H-tetrazol-5-yl)phenyl]amino}propyl]-N,N-diethylbiphenyl-2-carboxamide hydrochloride]	0.12
